Laboratory results reported in the supplement of paper PMC10733146.

How the values were obtained:
Assay in all cases: viability relative to DMSO control (fraction); higher = less drug effect (more viable cells)
Conditions in all cases: 48 h
[1] = system: primary ALL patient cells (S088)
Summary of the method: (§1)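 The cells were primary mononuclear tumour cells, either fresh or cryopreserved, isolated by Ficoll from blood or bone marrow or derived from processed lymph node. Each well of a 384-well plate received 4 × 10^4 cells onto compounds pre-plated at five concentrations, with one well per concentration. The medium was RPMI-1640 with penicillin/streptomycin, L-glutamine and human serum, and plates stood at 37 °C and 5% CO2 for 48 h. Viability is reported as CellTiter-Glo luminescence relative to the median of 16 inner DMSO wells.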

[2] = system: primary AML patient cells (S006)
Summary of the method: as §1

[3] = system: primary AML patient cells (S009)
Summary of the method: as §1

[4] = system: primary AML patient cells (S012)
Summary of the method: as §1

[5] = system: primary AML patient cells (S017)
Summary of the method: as §1

[6] = system: primary AML patient cells (S056)
Summary of the method: as §1

[7] = system: primary AML patient cells (S060)
Summary of the method: as §1

[8] = system: primary AML patient cells (S071)
Summary of the method: as §1

[9] = system: primary AML patient cells (S072)
Summary of the method: as §1

[10] = system: primary AML patient cells (S079)
Summary of the method: as §1

[11] = system: primary AML patient cells (S085)
Summary of the method: as §1

[12] = system: primary B-PLL patient cells (S016)
Summary of the method: as §1

[13] = system: primary BL patient cells (S005)
Summary of the method: as §1

[14] = system: primary CLL patient cells (S031)
Summary of the method: as §1

[15] = system: primary CLL patient cells (S043)
Summary of the method: as §1

[16] = system: primary DLBCL patient cells (S082)
Summary of the method: as §1

[17] = system: primary FL patient cells (S087)
Summary of the method: as §1

[18] = system: primary MCL patient cells (S041)
Summary of the method: as §1

[19] = system: primary MCL patient cells (S053)
Summary of the method: as §1

[20] = system: primary MCL patient cells (S063)
Summary of the method: as §1

Nc1ccn([C@@H]2O[C@H](CO)[C@@H](O)[C@@H]2O)c(=O)n1 [Cytarabine]
viability ([1]; 0.032 µM): 1.08
viability ([1]; 0.16 µM): 0.969
viability ([1]; 0.8 µM): 0.676
viability ([1]; 4 µM): 0.304
viability ([1]; 20 µM): 0.138
viability ([2]; 0.032 µM): 1.09
viability ([2]; 0.16 µM): 0.996
viability ([2]; 0.8 µM): 0.773
viability ([2]; 4 µM): 0.147
viability ([2]; 20 µM): 0.0817
viability ([3]; 0.032 µM): 1.04
viability ([3]; 0.16 µM): 0.96
viability ([3]; 0.8 µM): 0.82
viability ([3]; 4 µM): 0.521
viability ([3]; 20 µM): 0.383
viability ([4]; 0.032 µM): 0.99
viability ([4]; 0.16 µM): 0.927
viability ([4]; 0.8 µM): 0.985
viability ([4]; 4 µM): 0.935
viability ([4]; 20 µM): 0.602
viability ([5]; 0.032 µM): 1.11
viability ([5]; 0.16 µM): 1.07
viability ([5]; 0.8 µM): 1.15
viability ([5]; 4 µM): 0.665
viability ([5]; 20 µM): 0.303
viability ([6]; 0.032 µM): 1.05
viability ([6]; 0.16 µM): 1
viability ([6]; 0.8 µM): 0.719
viability ([6]; 4 µM): 0.177
viability ([6]; 20 µM): 0.0767
viability ([7]; 0.032 µM): 1.09
viability ([7]; 0.16 µM): 1.02
viability ([7]; 0.8 µM): 1.01
viability ([7]; 4 µM): 0.505
viability ([7]; 20 µM): 0.132
viability ([8]; 0.032 µM): 0.891
viability ([8]; 0.16 µM): 0.797
viability ([8]; 0.8 µM): 0.64
viability ([8]; 4 µM): 0.257
viability ([8]; 20 µM): 0.172
viability ([9]; 0.032 µM): 1.14
viability ([9]; 0.16 µM): 1.06
viability ([9]; 0.8 µM): 0.995
viability ([9]; 4 µM): 0.774
viability ([9]; 20 µM): 0.458
viability ([10]; 0.032 µM): 1.07
viability ([10]; 0.16 µM): 1.01
viability ([10]; 0.8 µM): 0.781
viability ([10]; 4 µM): 0.297
viability ([10]; 20 µM): 0.0864
viability ([11]; 0.032 µM): 1.1
viability ([11]; 0.16 µM): 1.02
viability ([11]; 0.8 µM): 0.925
viability ([11]; 4 µM): 0.372
viability ([11]; 20 µM): 0.106
viability ([12]; 0.032 µM): 1.11
viability ([12]; 0.16 µM): 0.733
viability ([12]; 0.8 µM): 0.145
viability ([12]; 4 µM): 0.0425
viability ([12]; 20 µM): 0.0373
viability ([13]; 0.032 µM): 1.03
viability ([13]; 0.16 µM): 1.02
viability ([13]; 0.8 µM): 0.98
viability ([13]; 4 µM): 0.969
viability ([13]; 20 µM): 0.893
viability ([14]; 0.032 µM): 1.15
viability ([14]; 0.16 µM): 1.04
viability ([14]; 0.8 µM): 0.706
viability ([14]; 4 µM): 0.177
viability ([14]; 20 µM): 0.0741
viability ([15]; 0.032 µM): 1.1
viability ([15]; 0.16 µM): 0.975
viability ([15]; 0.8 µM): 0.707
viability ([15]; 4 µM): 0.236
viability ([15]; 20 µM): 0.0952
viability ([16]; 0.032 µM): 1.08
viability ([16]; 0.16 µM): 0.974
viability ([16]; 0.8 µM): 0.702
viability ([16]; 4 µM): 0.522
viability ([16]; 20 µM): 0.484
viability ([17]; 0.032 µM): 1.03
viability ([17]; 0.16 µM): 1.02
viability ([17]; 0.8 µM): 0.959
viability ([17]; 4 µM): 0.747
viability ([17]; 20 µM): 0.628
viability ([18]; 0.032 µM): 1.08
viability ([18]; 0.16 µM): 1
viability ([18]; 0.8 µM): 0.732
viability ([18]; 4 µM): 0.21
viability ([18]; 20 µM): 0.115
viability ([19]; 0.032 µM): 1.01
viability ([19]; 0.16 µM): 0.754
viability ([19]; 0.8 µM): 0.327
viability ([19]; 4 µM): 0.195
viability ([19]; 20 µM): 0.136
viability ([20]; 0.032 µM): 1.11
viability ([20]; 0.16 µM): 1.08
viability ([20]; 0.8 µM): 0.957
viability ([20]; 4 µM): 0.489
viability ([20]; 20 µM): 0.238
